Assay results published in patent US7138411B2, “Substituted benzopyran derivatives for the treatment of inflammation” (G.D. Searle & Co., priority 1997, dated 2006).

Legend:
COX-2 [1] = target: T1, COX-2 (UniProt P35354); assay: Assay for COX-2 activity (PGE2 ELISA); conditions: read-out: COX-2 IC50; 10–20 minutes pre-incubation, reaction stopped after ten minutes, pH 8.0
T1 sequence (P35354 1-604): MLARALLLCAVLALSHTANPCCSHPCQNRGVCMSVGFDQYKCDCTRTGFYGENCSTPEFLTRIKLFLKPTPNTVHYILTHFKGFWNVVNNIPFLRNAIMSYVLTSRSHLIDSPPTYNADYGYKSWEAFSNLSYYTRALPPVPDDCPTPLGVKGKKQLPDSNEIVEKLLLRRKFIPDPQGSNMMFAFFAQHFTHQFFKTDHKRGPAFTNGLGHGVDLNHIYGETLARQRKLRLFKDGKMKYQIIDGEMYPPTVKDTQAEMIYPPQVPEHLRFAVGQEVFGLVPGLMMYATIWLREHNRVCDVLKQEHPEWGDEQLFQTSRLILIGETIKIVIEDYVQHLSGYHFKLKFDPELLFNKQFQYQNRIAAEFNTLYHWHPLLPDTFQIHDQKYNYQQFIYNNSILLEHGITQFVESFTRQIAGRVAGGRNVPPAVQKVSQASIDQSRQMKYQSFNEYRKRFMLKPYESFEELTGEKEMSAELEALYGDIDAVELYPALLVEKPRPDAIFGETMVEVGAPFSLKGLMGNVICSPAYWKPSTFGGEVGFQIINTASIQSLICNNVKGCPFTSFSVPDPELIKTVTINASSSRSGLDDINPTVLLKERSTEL

COX-2 [2] = target: T1, COX-2; assay: Fast assay for COX-2 activity (PGE2 ELISA); type: biochemical, human or murine; conditions: fast assay: 10 min pre-incubation at 25° C., reaction stopped after two minutes, pH 7.5
COX-1 = COX-1 (UniProt P23219); assay: Assay for COX-1 activity (PGE2 ELISA); conditions: read-out: COX-1 IC50; 10–20 minutes pre-incubation, reaction stopped after ten minutes, pH 8.0

Compound	IC50 (COX-2 [1])	melting point	IC50 (COX-2 [2])	IC50 (COX-1)
O=C(O)C1=Cc2cc(Cl)c(Oc3ccc(OC(F)(F)F)cc3)cc2OC1C(F)(F)F (stereo not drawn) [Example 187, 6-Chloro-2-(trifluoromethyl)-7-[4-(trifluoromethoxy)phenoxy]-2H-1-benzopyran-3-carboxlic acid]	33.7 µM	198 to 199.2 °C	2.9 µM	> 100 µM
O=C(O)C1=Cc2cc(Cl)c(Oc3ccc(C(F)(F)F)cc3)cc2OC1C(F)(F)F (stereo not drawn) [Example 186, 6-Chloro-2-(trifluoromethyl)-7-[4-(trifluoromethyl)phenoxy]-2H-1-beazopyran-3-carboxylic acid]	3.4 µM	230.9 to 232 °C	< 0.1 µM	32.8 µM
O=C(O)C1=Cc2cc(C(=O)c3ccc(O)cc3)ccc2OC1C(F)(F)F (stereo not drawn) [Example 98, 6-(4-Hydroxybenzoyl)-2-(trifluoromethyl)-2H-1-benzopyran-3-carboxylic acid]	1.5 µM	234 to 239.5 °C	2 µM	19 µM
C=Cc1cc2c(cc1Cl)C=C(C(=O)O)C(C(F)(F)F)O2 (stereo not drawn) [Example 182, 6-Chloro-7-ethenyl-2-(trifluoromethyl)-2H-1-benzopyran-3-carboxylic acid]	> 100 µM	> 200 °C (dec.)	< 0.1 µM	> 100 µM
CC(C)(CO)c1ccc2c(c1)OC(C(F)(F)F)C(C(=O)O)=C2 (stereo not drawn) [Example 179, 7-(2-Hydroxy-1,1-dimethylethyl)-2-(trifluoromethyl)-2H-1-benzopyran-3-carboxylic acid]	16 µM	228.9 to 230 °C	15.6 µM	> 100 µM
CC(C)(C)c1cc2c(c(C(C)(C)C)c1)OC(C(F)(F)F)C(C(=O)O)=C2 (stereo not drawn) [Example 23, 6,8-bis(1,1-Dimethylethyl)-2-trifluoromethyl-2H-1-benzopyran-3-carboxylic acid]	24 µM	171.6 to 175 °C	7 µM	> 100 µM
COc1ccc(Sc2cc3c(cc2Cl)C=C(C(=O)O)C(C(F)(F)F)O3)cc1 (stereo not drawn) [Example 191, 6-Chloro-7-[(4-methoxyphenyl)thio]-2-(trifluoromethyl)-2H-1-benzopyran-3-carboxylic acid]	42.2 µM	239.4 to 242.3 °C	< 0.1 µM	> 100 µM
CC(C)CNS(=O)(=O)c1ccc2c(c1)C=C(C(=O)O)C(C(F)(F)F)O2 (stereo not drawn) [Example 55, 6-[(2-Methylpropyl)aminosulfonyl]-2-trifluoromethyl-2H-1-benzopyran-3-carboxylic acid]	53 µM	190.6 to 192.4 °C	46 µM	> 100 µM
C#Cc1cc2c(cc1Cl)C=C(C(=O)O)C(C(F)(F)F)O2 (stereo not drawn) [Example 181, 6-Chloro-7-ethynyl-2-(trifluoromethyl)-2H-1-benzopyran-3-carboxylic acid]	> 100 µM	> 300 °C	1.5 µM	> 100 µM
O=C(O)C1=Cc2ccc(Oc3ccccc3)cc2OC1C(F)(F)F (stereo not drawn) [Example 176, 7-Phenoxy-2-(trifluoromethyl)-2H-1-benzopyran-3-carboxylic acid]	2 µM	180 to 181 °C	< 0.1 µM	3.3 µM
CCOC(=O)C1=Cc2cc(N)ccc2OC1C(F)(F)F (stereo not drawn) [Example 35, Ethyl 6-amino-2-trifluoromethyl-2H-1-benzopyran-3-carboxylate]	1.7 µM	111 to 115 °C	2.2 µM	11 µM
O=C(O)C1=Cc2cc(Cl)c(Sc3ccc(Cl)cc3)cc2OC1C(F)(F)F (stereo not drawn) [Example 192, 6-Chloro-7-[(4-chlorophenyl)thio]-2-(trifluoromethyl)-2H-1-benzopyran-3-carboxylic acid]	1.4 µM	251.7 to 253.3 °C	< 0.1 µM	12.3 µM
O=C(O)C1=Cc2cc(S(=O)(=O)N3CCOCC3)ccc2OC1C(F)(F)F (stereo not drawn) [Example 53, 6-[(4-Morpholino)sulfonyl]-2-trifluoromethyl-2H-1-benzopyran-3-carboxylic acid]	6 µM	215.2 to 219.3 °C	8 µM	> 100 µM

The next molecules have a lower IC50 (COX-2 [1]) than those just listed; values first:

IC50 (COX-2 [1])	melting point	IC50 (COX-2 [2])	IC50 (COX-1)	Compound
< 0.1 µM	205 to 207 °C	< 0.1 µM	< 0.1 µM	COc1ccc(Oc2ccc3c(c2)C=C(C(=O)O)C(C(F)(F)F)O3)cc1Cl (stereo not drawn) [Example 9, 6-(3-Chloro-4-methoxyphenoxy)-2-(trifluoromethyl)-2H-1-benzopyran-3-carboxylic acid]
1.2 µM	252.6 to 254.8 °C	< 0.1 µM	44.8 µM	O=C(O)C1=Cc2cc(Cl)c(Oc3ccc4cc(Br)ccc4c3)cc2OC1C(F)(F)F (stereo not drawn) [Example 189, 7-[(6-Bromo-2-naphthalenyl)oxy]-6-chloro-2-(trifluoromethyl)-2H-1-benzopyran-3-carboxylic acid]
< 0.1 µM	190.1 to 192.1 °C	< 0.1 µM	33 µM	O=C(O)C1=Cc2cc(Cl)cc(C#Cc3ccccc3)c2OC1C(F)(F)F (stereo not drawn) [Example 120, 6-Chloro-8-(phenylethynyl)-2-(trifluoromethyl)-2H-1-benzopyran-3-carboxylic acid]
< 0.1 µM	205.4 to 206.5 °C	< 0.1 µM	1.3 µM	O=C(O)C1=Cc2cc(Cl)c(Oc3ccc(Cl)cc3)cc2OC1C(F)(F)F (stereo not drawn) [Example 184, 6-Chloro-7-(4-chlorophenoxy)-2-(trifluoromethyl)-2H-1-benzopyran-3-carboxylic acid]
< 0.1 µM	140.5 to 142.5 °C	< 0.1 µM	8.2 µM	O=C(O)C1=Cc2cc(Oc3ccc(Cl)cc3)ccc2OC1C(F)(F)F (stereo not drawn) [Example 104, 6-(4-Chlorophenoxy)-2-(trifluoromethyl)-2H-1-benzopyran-3-carboxylic acid]
< 0.1 µM	233 to 234 °C	< 0.1 µM	0.4 µM	O=C(O)C1=Cc2cc(Cl)c(Oc3ccc(Cl)cc3Cl)cc2OC1C(F)(F)F (stereo not drawn) [Example 197, 6-Chloro-7-(2,4-dichlorophenoxy)-2-(trifluoromethyl)-2H-1-benzopyran-3-carboxylic acid]
0.1 µM	268.3 to 269.4 °C	0.2 µM	25 µM	O=C(O)C1=Cc2cc(C(=O)c3ccc(Cl)cc3)ccc2OC1C(F)(F)F (stereo not drawn) [Example 97, 6-(4-Chlorobenzoyl)-2-(trifluoromethyl)-2H-1-benzopyran-3-carboxylic acid]
< 0.1 µM	224.9 to 225.9 °C	< 0.1 µM	> 100 µM	O=C(O)C1=Cc2cc(Cl)c(I)cc2OC1C(F)(F)F (stereo not drawn) [Example 180, 6-Chloro-7-iodo-2-(trifluoromethyl)-2H-1-benzopyran-3-carboxylic acid]
< 0.1 µM	253.5 to 256 °C	0.2 µM	5.7 µM	O=C(O)C1=Cc2c(ccc3oc4ccccc4c23)OC1C(F)(F)F (stereo not drawn) [Example 106, 3-(Trifluoromethyl)-3H-benzofuro[3,2-f][1]benzopyran-2-carboxylic acid]
< 0.1 µM	191.9 to 193.1 °C	< 0.1 µM	12.4 µM	O=C(O)C1=Cc2cc(Cl)c(Oc3ccc(F)c(F)c3)cc2OC1C(F)(F)F (stereo not drawn) [Example 198, 6-Chloro-7-(3,4-difluorophenoxy)-2-(trifluoromethyl)-2H-1-benzopyran-3-carboxylic acid]
< 0.1 µM	196.3 to 197.7 °C	0.2 µM	0.3 µM	O=C(O)C1=Cc2cc(Cl)cc(-c3ccccc3)c2OC1C(F)(F)F (stereo not drawn) [Example 129, 6-Chloro-8-phenyl-2-(trifluoromethyl)-2H-1-benzopyran-3-carboxylic acid]
< 0.1 µM	183.2 to 185.8 °C	< 0.1 µM	< 0.1 µM	C=Cc1cc(Cl)cc2c1OC(C(F)(F)F)C(C(=O)O)=C2 (stereo not drawn) [Example 114, 6-Chloro-8-ethenyl-2-(trifluoramethyl)-2H-1-benzopyran-3-carboxylic acid]
< 0.1 µM	129.3 to 132.4 °C	< 0.1 µM	< 0.1 µM	O=C(O)C1=Cc2cc(SC(F)(F)F)ccc2SC1C(F)(F)F (stereo not drawn) [Example 155, 2-(Trifluoromethyl)-6-[(trifluoromethyl)thio]-2H-1-benzothiopyran-3-carboxylic acid]
< 0.1 µM	213.2 to 214.3 °C	< 0.1 µM	4.1 µM	COc1ccc(Oc2cc3c(cc2Cl)C=C(C(=O)O)C(C(F)(F)F)O3)cc1 (stereo not drawn) [Example 183, 6-Chloro-7-(4-methoxyphenoxy)-2-(trifluoromethyl)-2H-1-benzopyran-3-carboxylic acid]
